From ChEMBL document CHEMBL1159048, “Asymmetric syntheses of daedalin A and quercinol and their tyrosinase inhibitory activity” (Bioorg Med Chem Lett, 2010) come the findings set out here.

For test [1], the target named is T1, Tyrosinase (Agaricus bisporus) (UniProt O42713).
T1 sequence (whole entry): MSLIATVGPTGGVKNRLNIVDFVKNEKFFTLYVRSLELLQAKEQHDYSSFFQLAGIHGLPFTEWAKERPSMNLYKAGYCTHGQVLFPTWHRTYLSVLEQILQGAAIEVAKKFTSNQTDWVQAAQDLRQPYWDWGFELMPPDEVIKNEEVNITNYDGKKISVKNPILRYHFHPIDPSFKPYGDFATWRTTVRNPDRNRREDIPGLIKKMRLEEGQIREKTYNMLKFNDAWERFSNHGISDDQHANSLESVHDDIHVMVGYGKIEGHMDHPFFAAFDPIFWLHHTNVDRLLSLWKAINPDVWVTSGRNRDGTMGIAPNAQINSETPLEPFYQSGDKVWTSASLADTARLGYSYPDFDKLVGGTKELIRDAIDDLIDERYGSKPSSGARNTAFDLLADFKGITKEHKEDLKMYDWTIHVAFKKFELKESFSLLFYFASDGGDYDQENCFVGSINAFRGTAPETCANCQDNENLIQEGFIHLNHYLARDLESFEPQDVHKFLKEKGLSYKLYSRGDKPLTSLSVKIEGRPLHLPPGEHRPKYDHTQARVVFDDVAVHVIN
As to the kind of experiment: Inhibition of mushroom tyrosinase at 200 uM.

Test [2] deals with T1, Tyrosinase (Agaricus bisporus). The experiment in a line: Inhibition of mushroom tyrosinase at 100 uM.
The target of test [3] is T2, Tyrosinase (Agaricus bisporus, UniProt O42713).
T2 sequence (O42713 whole entry): T1 sequence (whole entry)
The experiment in a line: Inhibition of mushroom tyrosinase.

Test [4] deals with T1, Tyrosinase (Agaricus bisporus). The experiment in a line: Inhibition of mushroom tyrosinase at 400 uM.

For `C[C@]1(CO)C=Cc2cc(O)ccc2O1` [DAEDALIN A], the inhibition was found to be 48.4% in test [1], 28.6% in test [2] and 61.6% in test [4]. In addition, the midpoint of inhibition in test [3], the IC50, lay at 208 µM.

For orientation: inhibition means how much of the control response was suppressed. As usually defined, the IC50 is the concentration needed to halve the response being measured.
